# Laboratory results from PMC10287695, “Non-covalent inhibitors of thioredoxin glutathione reductase with schistosomicidal activity in vivo” (Nature Communications, 2023).
# Values joined by “and” are separate entries in the source; they are usually repeats but may differ in a detail not shown here. Equal values may be shown once. Read-outs that look alike come from different tables or passages of the source.
# Columns and labels:
# [1] = human, in vivo; cited from earlier work
# [2] = system: S. mansoni juvenile worms; design: method as in PMID 15013742; conditions: cited from earlier work
# S. mansoni NTS = experiment: Phenotypic assessment of PZQ activity on NTS; assay type: cell-based; conditions: for % Effect, single replicates I, II, III / % Effect / NTS phenotypic score, Mean / IC50: 24 hour exposure; for % Effect: from mean score, 100 - Average (Test) x 100 / Average (Control); for NTS phenotypic score, Mean: score 3 (motile) to 0 (dead); for IC50: NTS phenotypic scoring
# Description: About 200 NTS incubated at 37 °C in a 5% CO2 incubator overnight were exposed to different concentrations of PZQ (1, 5, 10, 20, 30, 40 and 50 µM) and control without treatment for 24 h in triplicate. Worm images were acquired using Keyence BZ-X800 microscope and PZQ activity evaluated phenotypically. NTS viability was assessed by scoring worms based on morphological changes and motility. Viability scores of 3 = motile, no changes to morphology and transparency, 2 = reduced motility and/or some damage to tegument as well as reduced transparency and increased granularity, 1 = severe reduction of motility and/or damage to tegument with high opacity and high granularity, and 0 = dead.
compound,measurement,setting,value
"O=C(C1CCCCC1)N1CC(=O)N2CCc3ccccc3C2C1 (stereo not drawn) [PZQ, praziquantel]",half-life,[1],1.6 h
same,LD50 of PZQ against ex vivo S. mansoni juvenile worms,[2],413 µM
same,"% Effect, single replicates I, II, III",S. mansoni NTS; 10 µM,9.401% and 12.151% and 16.3217%
same,% Effect,S. mansoni NTS; 10 µM,12.6338%
same,"NTS phenotypic score, Mean","S. mansoni NTS; 10 µM, mean of 3 replicates",2.613
same,"% Effect, single replicates I, II, III",S. mansoni NTS; 20 µM,15.8245% and 13.8003% and 19.4239%
same,% Effect,S. mansoni NTS; 20 µM,16.3511%
same,"NTS phenotypic score, Mean","S. mansoni NTS; 20 µM, mean of 3 replicates",2.502
same,"% Effect, single replicates I, II, III",S. mansoni NTS; 30 µM,25.0655% and 24.6184% and 29.7619%
same,% Effect,S. mansoni NTS; 30 µM,26.486%
same,"NTS phenotypic score, Mean","S. mansoni NTS; 30 µM, mean of 3 replicates",2.199
same,"% Effect, single replicates I, II, III",S. mansoni NTS; 40 µM,41.1572% and 48.5123% and 41.922%
same,% Effect,S. mansoni NTS; 40 µM,43.8717%
same,"NTS phenotypic score, Mean","S. mansoni NTS; 40 µM, mean of 3 replicates",1.679
same,"% Effect, single replicates I, II, III",S. mansoni NTS; 50 µM,60.2247% and 58.8296% and 61.8051%
same,% Effect,S. mansoni NTS; 50 µM,60.2866%
same,"NTS phenotypic score, Mean","S. mansoni NTS; 50 µM, mean of 3 replicates",1.188
same,"LD50 for NTS, phenotypic analysis",S. mansoni NTS; 24 h exposure,42.9 ± 0.83 µM
same,IC50,"S. mansoni NTS; FORECAST interpolation, read-out: IC50, single replicates I, II, III",42.6 µM and 42.3 µM
same,IC50,"S. mansoni NTS; Schistosoma mansoni, 24 h, FORECAST interpolation, read-out: IC50, single replicates I, II, III",43.9 µM
same,IC50,"S. mansoni NTS; Schistosoma mansoni, 24 h, mean of 3 replicates, read-out: IC50, Mean",42.9 µM
